In patent publication US20040057926A1, “Modulation of the immune response through the manipulation of arginine levels” (LSU Medical Center, priority 2002, published 2004):

How the values were obtained:
ASE = ASE activity assay (L-ornithine production) in PM lysates; type: biochemical, mice; conditions: NOHA 100 μM, Nor-NOHA 50 μM
Description: Cell lysates from PM stimulated with IL-4+IL-13 or IFN-γ were tested for ASE activity by measuring the production of L-ornithine. In brief, cell lysates from PM stimulated with IL-4+IL-13 or IFN-γ in the presence or absence of NOHA or Nor-NOHA were added to 50 μl of Tris-HCl (50 mM; pH 7.5) containing 10 mM MnCl2. This mixture was heated at 55-60° C. for 10 min to activate ASE. The hydrolysis reaction from L-Arg to L-ornithine was identified by a colorimetric assay after the addition of ninhydrin solution and incubation at 37° C. for 1 h.

purified T-cells [1] = test: CD3ζ expression in stimulated purified T-cell cultures with H. pylori sonicate; type: cell-based, human; conditions: sonicate 20 μg/ml, L-arginine 400 μM
Description: After isolating peripheral blood mononuclear cells by Ficoll-Paque Plus (Amersham Pharmacia Biotech; Piscataway, N.J.), T-cells were purified by negative selection by using an affinity column (R & D Systems; Minneapolis, Minn.). The purity was always >90% T-cells as measured by the expression of CD3ε. H. pylori extracts or live H. pylori have no effect on resting T-cells, therefore T-cells were stimulated by cross linking anti-CD3 plus anti-CD28 as follows: 24 well plates were coated with 0.3 ml of goat-anti mouse (GAM) (Kirkegaard & Perry Laboratories; Gaithersburg, Md.) at 10 μg/ml in HBSS for 1 h. After washing twice with Hank's balanced salt solution (HBSS), 0.5×10^6 of purified T-cells were added per well in 1 ml of RPMI without L-arginine containing 1 μg/ml of anti-human CD3 (Ortho Diagnostics, Raritan, N.J.) and 100 ng/ml of anti-human CD28 (Becton-Dickinson) and cultured for 24 h. After this time L-arginine was added to the wells to give a final concentration of 0.4 mM. H. pylori sonicate (20 μg/ml) from either the wild type strain ATCC 43504 or its rocF (−) isogenic mutant was also added to the wells. After 24 h under these conditions, the cells were recovered and stained for CD3ζ. Six different donors were tested. […]

CAT-2B = CAT-2B (Homo sapiens, UniProt P52569); conditions: read-out: Km for L-Arg; cited from earlier work
Sequence of CAT-2B (P52569 whole entry, species assumed): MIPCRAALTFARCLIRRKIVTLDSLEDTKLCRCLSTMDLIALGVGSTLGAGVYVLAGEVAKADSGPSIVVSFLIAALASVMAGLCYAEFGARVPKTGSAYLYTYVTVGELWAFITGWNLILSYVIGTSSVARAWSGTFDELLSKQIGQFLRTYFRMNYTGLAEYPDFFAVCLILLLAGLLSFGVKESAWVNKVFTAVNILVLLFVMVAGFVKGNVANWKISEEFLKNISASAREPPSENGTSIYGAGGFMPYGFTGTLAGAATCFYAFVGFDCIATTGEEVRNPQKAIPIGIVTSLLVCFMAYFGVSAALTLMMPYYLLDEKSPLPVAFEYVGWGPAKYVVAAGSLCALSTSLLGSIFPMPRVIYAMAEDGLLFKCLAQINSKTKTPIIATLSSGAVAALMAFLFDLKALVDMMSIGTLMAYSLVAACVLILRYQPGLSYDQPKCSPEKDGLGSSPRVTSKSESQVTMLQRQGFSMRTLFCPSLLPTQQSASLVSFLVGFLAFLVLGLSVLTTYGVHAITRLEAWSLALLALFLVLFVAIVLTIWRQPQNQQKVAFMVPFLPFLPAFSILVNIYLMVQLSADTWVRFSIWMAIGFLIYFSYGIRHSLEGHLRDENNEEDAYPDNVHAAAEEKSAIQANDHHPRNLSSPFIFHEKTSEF

CAT-1 = CAT-1 (Homo sapiens, UniProt P30825); conditions: read-out: Km for L-Arg; cited from earlier work
Sequence of CAT-1 (P30825 whole entry): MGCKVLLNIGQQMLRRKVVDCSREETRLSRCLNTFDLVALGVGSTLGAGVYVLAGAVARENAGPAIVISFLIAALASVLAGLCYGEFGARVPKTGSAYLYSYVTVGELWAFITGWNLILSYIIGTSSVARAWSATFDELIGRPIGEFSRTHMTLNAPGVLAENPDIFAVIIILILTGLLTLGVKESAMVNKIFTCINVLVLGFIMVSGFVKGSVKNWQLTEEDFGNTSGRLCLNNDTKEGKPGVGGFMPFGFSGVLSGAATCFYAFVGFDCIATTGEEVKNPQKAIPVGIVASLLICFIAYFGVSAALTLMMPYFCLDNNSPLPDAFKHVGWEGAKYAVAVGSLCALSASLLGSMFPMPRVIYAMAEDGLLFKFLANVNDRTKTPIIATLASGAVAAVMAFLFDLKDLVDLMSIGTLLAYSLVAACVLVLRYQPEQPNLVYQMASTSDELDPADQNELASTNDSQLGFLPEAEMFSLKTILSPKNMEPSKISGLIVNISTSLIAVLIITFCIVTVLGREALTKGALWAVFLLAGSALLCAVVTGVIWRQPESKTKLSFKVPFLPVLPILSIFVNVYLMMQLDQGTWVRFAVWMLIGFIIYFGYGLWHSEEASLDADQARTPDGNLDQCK

purified T-cells [2] = test: CD3ζ and phospho-CD3ζ expression in stimulated purified T-cells (flow cytometry); type: cell-based, human
Description: Peripheral blood mononuclear cells (PBMC) from normal donors were separated over Ficoll-Paque (Pharmacia Biotech, Uppsala, Sweden). PBMC were enriched over T-cell enrichment columns (R&D Systems, Minneapolis, Minn.). After 10 min. of incubation, the columns were washed and the obtained enriched T-cells were counted and tested for surface markers by flow cytometry. […].
Tissue culture dishes (100 mm) (Corning, N.Y.) were coated overnight at 4° C. with PBS containing 10 μg/ml of anti-CD3 (OKT-3 Ortho Pharmaceutical, Raritan, N.J.) and washed once with cold phosphate buffer saline (PBS). Two million purified T-cells were resuspended in complete RPMI-1640 (RPMI) containing approximately 1140 μM of L-arginine (BioWhittaker, Walkersville, Md.) or in RPMI-1640 without L-arginine (Arg-free-RPMI) (GIBCO, Invitrogen, Grand Island, N.Y.) containing 100 ng/ml of anti-CD28 (Becton Dickinson, San Jose, Calif.) and added to plates. Control media included RPMI without L-glutamine or […]. Unstimulated T-cells were placed in the same culture conditions as controls. […]
To determine CD3ζ expression, purified T-cells were incubated for 15 min at 4° C. with anti-CD3-FITC or the isotype control (Beckman-Coulter, Miami, Fla.) at 1 μg of antibody/10^6 cells. […] Fluorescence analysis was done using a Coulter-EPICS flow cytometer (Beckman-Coulter, Miami, Fla.).

CAT-3 = CAT-3 (Homo sapiens, UniProt Q8WY07); conditions: read-out: Km for L-Arg; cited from earlier work
Sequence of CAT-3 (Q8WY07 whole entry, species assumed): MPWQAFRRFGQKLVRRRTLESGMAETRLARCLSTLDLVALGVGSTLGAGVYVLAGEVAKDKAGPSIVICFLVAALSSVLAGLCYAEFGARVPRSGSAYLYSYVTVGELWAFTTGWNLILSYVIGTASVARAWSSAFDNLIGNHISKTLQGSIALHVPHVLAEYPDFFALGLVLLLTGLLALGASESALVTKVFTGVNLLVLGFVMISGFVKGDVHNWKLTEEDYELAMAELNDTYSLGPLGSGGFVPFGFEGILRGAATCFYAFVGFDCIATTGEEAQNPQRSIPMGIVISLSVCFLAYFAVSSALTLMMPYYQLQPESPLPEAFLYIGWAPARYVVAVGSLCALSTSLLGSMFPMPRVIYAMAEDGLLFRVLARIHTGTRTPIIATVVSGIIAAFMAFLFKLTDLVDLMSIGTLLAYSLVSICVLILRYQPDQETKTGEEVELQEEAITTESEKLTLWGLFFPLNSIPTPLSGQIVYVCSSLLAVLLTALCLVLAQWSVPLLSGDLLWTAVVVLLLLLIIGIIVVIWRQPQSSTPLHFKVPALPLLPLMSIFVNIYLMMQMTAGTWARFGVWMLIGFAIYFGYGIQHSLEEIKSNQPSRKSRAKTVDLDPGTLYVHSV

SMILES	intracellular ASE activity (ASE)	CD3ζ expression in stimulated T-cells (purified T-cells [1])	Km (CAT-2B) [µM]	Km (CAT-1) [µM]	re-expression of CD3ζ after addition of L-arginine to the culture media (purified T-cells [2]; L-arginine 1140 μM, T-cells stimulated in Arg-free-RPMI)	L-Arg concentrations that impair the re-expression of CD3ζ chain (purified T-cells [2]; stimulated T-cells, in vitro)	Km (CAT-3) [µM]
NC(=NCCC[C@H](N)C(=O)O)NO [NOHA, NG-hydroxy-L-arginine]	blocked intracellular ASE activity						
N=C(N)NCCC[C@H](N)C(=O)O [L-arginine]		recovered CD3ζ expression	100	100	rapid re-expression of CD3ζ	below 40 μM	100
